Patent publication US20230111310A1, “CARBOXYLIC ACID DERIVATIVE-SUBSTITUTED IMINO ARYL COMPOUND, PREPARATION METHOD THEREFOR, HERBICIDAL COMPOSITION AND USE THEREOF” (Qingdao Kingagroot Chemical Compound Co., Ltd., priority 2020, published 2023)

Key:
Assay in all cases: Weeding effect in post-emergence stage
Type in all cases: in vivo
Settings in all cases: level of fresh weight growth control rate
Echinochloa crusgalli = tested on: Echinochloa crusgalli
Method in brief: (§1)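 Pot-grown weeds were sprayed at the 2-3 leaf stage, 2 weeks after sowing, with compound in acetone plus Tween 80 and 1.5 liter/ha methyl oleate emulsifiable concentrate, diluted in water. Doses were 500, 250, 125, 60, 30, 15, 7.5 g/ha. Growth control was scored after 3 weeks in greenhouse; mean of three replicates.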

Setaria viridis = tested on: Setaria viridis
Method in brief: as §1

Abutilon theophrasti = tested on: Abutilon theophrasti
Method in brief: as §1

Eleusine indica = tested on: Eleusine indica
Method in brief: as §1

Digitaria sanguinalis = tested on: Digitaria sanguinalis
Method in brief: as §1

Alopecurus japonicus = tested on: Alopecurus japonicus
Method in brief: as §1

| SMILES | Weeding effect in post-emergence stage, Echinochloa crusgalli (Echinochloa crusgalli; Dose 30 g/ha) | Weeding effect in post-emergence stage, Setaria viridis (Setaria viridis; Dose 30 g/ha) | Weeding effect in post-emergence stage, Abutilon theophrasti (Abutilon theophrasti; Dose 30 g/ha) | Weeding effect in post-emergence stage, Eleusine indica (Eleusine indica; Dose 30 g/ha) | Weeding effect in post-emergence stage, Digitaria sanguinalis (Digitaria sanguinalis; Dose 30 g/ha) | Weeding effect in post-emergence stage, Alopecurus japonicus (Alopecurus japonicus; Dose 30 g/ha) | Weeding effect in post-emergence stage, Echinochloa crusgalli (Echinochloa crusgalli; Dose 15 g/ha) | Weeding effect in post-emergence stage, Setaria viridis (Setaria viridis; Dose 15 g/ha) | Weeding effect in post-emergence stage, Abutilon theophrasti (Abutilon theophrasti; Dose 15 g/ha) | Weeding effect in post-emergence stage, Eleusine indica (Eleusine indica; Dose 15 g/ha) | Weeding effect in post-emergence stage, Digitaria sanguinalis (Digitaria sanguinalis; Dose 15 g/ha) | Weeding effect in post-emergence stage, Alopecurus japonicus (Alopecurus japonicus; Dose 15 g/ha) | other results |
| --- | --- | --- | --- | --- | --- | --- | --- | --- | --- | --- | --- | --- | --- |
| CC(O/N=C/c1cc(-n2c(=O)cc(C(F)(F)F)n(C)c2=O)c(F)cc1Cl)C(=O)OCC1OCCO1 (stereo not drawn) [Compound 266] | 5 (Level 5: growth control rate is above 85%) | 5 (Level 5: growth control rate is above 85%) | 5 (Level 5: growth control rate is above 85%) | 5 (Level 5: growth control rate is above 85%) | 5 (Level 5: growth control rate is above 85%) | 5 (Level 5: growth control rate is above 85%) | – | – | – | – | – | – | – |
| CC(O/N=C/c1cc(-n2c(=O)cc(C(F)(F)F)n(C)c2=O)c(F)cc1Cl)C(=O)OCc1cccs1 (stereo not drawn) [Compound 268] | 5 (Level 5: growth control rate is above 85%) | 5 (Level 5: growth control rate is above 85%) | 5 (Level 5: growth control rate is above 85%) | 5 (Level 5: growth control rate is above 85%) | 5 (Level 5: growth control rate is above 85%) | 5 (Level 5: growth control rate is above 85%) | – | – | – | – | – | – | – |
| CC(O/N=C/c1cc(-n2c(=O)cc(C(F)(F)F)n(C)c2=O)c(F)cc1Cl)C(=O)OCc1ccccc1 (stereo not drawn) [Compound 283] | – | – | – | – | – | – | 5 (Level 5: growth control rate is above 85%) | 5 (Level 5: growth control rate is above 85%) | 5 (Level 5: growth control rate is above 85%) | 5 (Level 5: growth control rate is above 85%) | 5 (Level 5: growth control rate is above 85%) | 5 (Level 5: growth control rate is above 85%) | – |
| CC(O/N=C/c1cc(-n2c(=O)cc(C(F)(F)F)n(C)c2=O)c(F)cc1Cl)C(=O)OCc1ccccc1F (stereo not drawn) [Compound 284] | – | – | – | – | – | – | 5 (Level 5: growth control rate is above 85%) | 5 (Level 5: growth control rate is above 85%) | 5 (Level 5: growth control rate is above 85%) | 5 (Level 5: growth control rate is above 85%) | 5 (Level 5: growth control rate is above 85%) | 5 (Level 5: growth control rate is above 85%) | – |
| CC(O/N=C/c1cc(-n2c(=O)cc(C(F)(F)F)n(C)c2=O)c(F)cc1Cl)C(=O)OCc1cccc(F)c1 (stereo not drawn) [Compound 285] | 5 (Level 5: growth control rate is above 85%) | 5 (Level 5: growth control rate is above 85%) | 5 (Level 5: growth control rate is above 85%) | 5 (Level 5: growth control rate is above 85%) | 5 (Level 5: growth control rate is above 85%) | 5 (Level 5: growth control rate is above 85%) | – | – | – | – | – | – | – |
| CC(O/N=C/c1cc(-n2c(=O)cc(C(F)(F)F)n(C)c2=O)c(F)cc1Cl)C(=O)OCc1ccc(F)cc1 (stereo not drawn) [Compound 286] | 5 (Level 5: growth control rate is above 85%) | 5 (Level 5: growth control rate is above 85%) | 5 (Level 5: growth control rate is above 85%) | 5 (Level 5: growth control rate is above 85%) | 5 (Level 5: growth control rate is above 85%) | 5 (Level 5: growth control rate is above 85%) | – | – | – | – | – | – | – |
| CC(O/N=C/c1cc(-n2c(=O)cc(C(F)(F)F)n(C)c2=O)c(F)cc1Cl)C(=O)OCc1ccccn1 (stereo not drawn) [Compound 301] | – | – | – | – | – | – | 5 (Level 5: growth control rate is above 85%) | 5 (Level 5: growth control rate is above 85%) | 5 (Level 5: growth control rate is above 85%) | 5 (Level 5: growth control rate is above 85%) | 5 (Level 5: growth control rate is above 85%) | 5 (Level 5: growth control rate is above 85%) | – |
| CC(O/N=C/c1cc(-n2c(=O)cc(C(F)(F)F)n(C)c2=O)c(F)cc1Cl)C(=O)OCc1cccnc1 (stereo not drawn) [Compound 302] | – | – | – | – | – | – | 5 (Level 5: growth control rate is above 85%) | 5 (Level 5: growth control rate is above 85%) | 5 (Level 5: growth control rate is above 85%) | 5 (Level 5: growth control rate is above 85%) | 5 (Level 5: growth control rate is above 85%) | 5 (Level 5: growth control rate is above 85%) | – |
| CC(O/N=C/c1cc(-n2c(=O)cc(C(F)(F)F)n(C)c2=O)c(F)cc1Cl)C(=O)OCc1ccncc1 (stereo not drawn) [Compound 303] | – | – | – | – | – | – | 5 (Level 5: growth control rate is above 85%) | 5 (Level 5: growth control rate is above 85%) | 5 (Level 5: growth control rate is above 85%) | 5 (Level 5: growth control rate is above 85%) | 5 (Level 5: growth control rate is above 85%) | 5 (Level 5: growth control rate is above 85%) | – |
| CCOC(=O)C(F)O/N=C/c1cc(-n2c(=O)cc(C(F)(F)F)n(C)c2=O)c(F)cc1Cl (stereo not drawn) [Compound 313] | – | – | – | – | – | – | 5 (Level 5: growth control rate is above 85%) | 5 (Level 5: growth control rate is above 85%) | 5 (Level 5: growth control rate is above 85%) | 5 (Level 5: growth control rate is above 85%) | 5 (Level 5: growth control rate is above 85%) | 5 (Level 5: growth control rate is above 85%) | – |
| CCC(O/N=C/c1cc(-n2c(=O)cc(C(F)(F)F)n(C)c2=O)c(F)cc1Cl)C(=O)OC (stereo not drawn) [Compound 315] | – | – | – | – | – | – | 5 (Level 5: growth control rate is above 85%) | 5 (Level 5: growth control rate is above 85%) | 5 (Level 5: growth control rate is above 85%) | 5 (Level 5: growth control rate is above 85%) | 5 (Level 5: growth control rate is above 85%) | 5 (Level 5: growth control rate is above 85%) | – |
| CCCC(O/N=C/c1cc(-n2c(=O)cc(C(F)(F)F)n(C)c2=O)c(F)cc1Cl)C(=O)OC (stereo not drawn) [Compound 316] | – | – | – | – | – | – | 5 (Level 5: growth control rate is above 85%) | 5 (Level 5: growth control rate is above 85%) | 5 (Level 5: growth control rate is above 85%) | 5 (Level 5: growth control rate is above 85%) | 5 (Level 5: growth control rate is above 85%) | 5 (Level 5: growth control rate is above 85%) | – |
| COC(=O)C(O/N=C/c1cc(-n2c(=O)cc(C(F)(F)F)n(C)c2=O)c(F)cc1Cl)C(C)C (stereo not drawn) [Compound 318] | – | – | – | – | – | – | 5 (Level 5: growth control rate is above 85%) | 5 (Level 5: growth control rate is above 85%) | 5 (Level 5: growth control rate is above 85%) | 5 (Level 5: growth control rate is above 85%) | 5 (Level 5: growth control rate is above 85%) | 5 (Level 5: growth control rate is above 85%) | – |
| CCOC(=O)C(O/N=C/c1cc(-n2c(=O)cc(C(F)(F)F)n(C)c2=O)c(F)cc1Cl)C1CC1 (stereo not drawn) [Compound 319] | 5 (Level 5: growth control rate is above 85%) | 5 (Level 5: growth control rate is above 85%) | 5 (Level 5: growth control rate is above 85%) | 5 (Level 5: growth control rate is above 85%) | 5 (Level 5: growth control rate is above 85%) | 5 (Level 5: growth control rate is above 85%) | – | – | – | – | – | – | – |
| COC(=O)C(OC)O/N=C/c1cc(-n2c(=O)cc(C(F)(F)F)n(C)c2=O)c(F)cc1Cl (stereo not drawn) [Compound 321] | – | – | – | – | – | – | – | – | – | – | – | – | Weeding effect in post-emergence stage, Echinochloa crusgalli (Echinochloa crusgalli; Dose 120 g/ha): 5 (Level 5: growth control rate is above 85%); Weeding effect in post-emergence stage, Setaria viridis (Setaria viridis; Dose 120 g/ha): 5 (Level 5: growth control rate is above 85%); Weeding effect in post-emergence stage, Abutilon theophrasti (Abutilon theophrasti; Dose 120 g/ha): 5 (Level 5: growth control rate is above 85%); Weeding effect in post-emergence stage, Eleusine indica (Eleusine indica; Dose 120 g/ha): 5 (Level 5: growth control rate is above 85%); Weeding effect in post-emergence stage, Digitaria sanguinalis (Digitaria sanguinalis; Dose 120 g/ha): 5 (Level 5: growth control rate is above 85%); Weeding effect in post-emergence stage, Alopecurus japonicus (Alopecurus japonicus; Dose 120 g/ha): 5 (Level 5: growth control rate is above 85%) |
